Assay [1] deals with human SOS1 (nucleotide exchange of K-Ras^G12C) (Homo sapiens, UniProt Q07889). Briefly: Biochemical assay 2: K-Ras^G12C activation assay by hSOS1 at high GTP concentration (HTRF).
Assay [2] concerns the target Epidermal Growth Factor Receptor (EGFR) (Homo sapiens (Human), UniProt P00533). The experiment in a line: EGFR kinase assay (TR-FRET). The format is biochemical. The source says:
EGFR inhibitory activity of compounds of the present invention was quantified employing the TR-FRET based EGFR assay as described in the following paragraphs.
Epidermal Growth Factor Receptor (EGFR) affinity purified from human carcinoma A431 cells (Sigma-Aldrich, #E3641) was used as kinase. As substrate for the kinase reaction the biotinylated peptide biotin-Ahx-[…] (SEQ ID NO 5) (C-terminus in amid form) was used which can be purchased e.g. form the company Biosyntan GmbH (Berlin-Buch, Germany).
For the assay 50 nL of a 100 fold concentrated solution of the test compound in DMSO was pipetted into a black low volume 384 well microtiter plate (Greiner Bio-One, Frickenhausen, Germany), 2 μL of a solution of EGFR in aqueous assay buffer [50 mM Hepes/HCl pH 7.0, 1 mM MgCl2, 5 mM MnCl2, 0.5 mM activated sodium ortho-vanadate, 0.005% (v/v) Tween-20]were added and the mixture was incubated for 15 min at 22° C. to allow pre-binding of the test compounds to the enzyme before the start of the kinase reaction. […] The concentration of EGFR was adjusted depending of the activity of the enzyme lot and was chosen appropriate to have the assay in the linear range, typical concentration were about 3 U/ml. The reaction was stopped by the addition of 5 μl of a solution of HTRF detection reagents (0.1 μM streptavidine-XL665 [Cis Biointernational] and 1 nM PT66-Tb-Cryptate, an terbium-cryptate labelled anti-phospho-tyrosine antibody from Cis Biointernational [instead of the PT66-Tb-cryptate PT66-Eu-Chelate from Perkin Elmer can also be used]) in an aqueous EDTA-solution (80 mM EDTA, 0.2% (w/v) bovine serum albumin in 50 mM HEPES pH 7.5).
The resulting mixture was incubated 1 h at 22° C. to allow the binding of the biotinylated phosphorylated peptide to the streptavidine-XL665 and the PT66-Eu-Chelate. Subsequently the amount of phosphorylated substrate was evaluated by measurement of the resonance energy transfer from the PT66-Tb-Cryptate to the streptavidine-XL665. Therefore, the fluorescence emissions at 620 nm and 665 nm after excitation at 337 nm were measured in a HTRF reader, e.g. a Pherastar (BMG Labtechnologies, Offenburg, Germany) or a Viewlux (Perkin-Elmer). The ratio of the emissions at 665 nm and at […] was taken as the measure for the amount of phosphorylated substrate.

Setting [3] is: E-notation values, unit inferred, 50 μM GTP, read-out: Assay 2 (KRAS-Activation, high GTP) IC50.
[4] abbreviates: E-notation values, unit inferred, read-out: EGFR-assay IC50.
Setting [5] is: in μM, read-out: EGFR-assay IC50.
Setting [6] is: values given in μM, read-out: EGFR kinase inhibition IC50.

Read-outs that look alike come from different tables or passages of the source.

Chain of Epidermal Growth Factor Receptor (EGFR) (P00533 25-1210): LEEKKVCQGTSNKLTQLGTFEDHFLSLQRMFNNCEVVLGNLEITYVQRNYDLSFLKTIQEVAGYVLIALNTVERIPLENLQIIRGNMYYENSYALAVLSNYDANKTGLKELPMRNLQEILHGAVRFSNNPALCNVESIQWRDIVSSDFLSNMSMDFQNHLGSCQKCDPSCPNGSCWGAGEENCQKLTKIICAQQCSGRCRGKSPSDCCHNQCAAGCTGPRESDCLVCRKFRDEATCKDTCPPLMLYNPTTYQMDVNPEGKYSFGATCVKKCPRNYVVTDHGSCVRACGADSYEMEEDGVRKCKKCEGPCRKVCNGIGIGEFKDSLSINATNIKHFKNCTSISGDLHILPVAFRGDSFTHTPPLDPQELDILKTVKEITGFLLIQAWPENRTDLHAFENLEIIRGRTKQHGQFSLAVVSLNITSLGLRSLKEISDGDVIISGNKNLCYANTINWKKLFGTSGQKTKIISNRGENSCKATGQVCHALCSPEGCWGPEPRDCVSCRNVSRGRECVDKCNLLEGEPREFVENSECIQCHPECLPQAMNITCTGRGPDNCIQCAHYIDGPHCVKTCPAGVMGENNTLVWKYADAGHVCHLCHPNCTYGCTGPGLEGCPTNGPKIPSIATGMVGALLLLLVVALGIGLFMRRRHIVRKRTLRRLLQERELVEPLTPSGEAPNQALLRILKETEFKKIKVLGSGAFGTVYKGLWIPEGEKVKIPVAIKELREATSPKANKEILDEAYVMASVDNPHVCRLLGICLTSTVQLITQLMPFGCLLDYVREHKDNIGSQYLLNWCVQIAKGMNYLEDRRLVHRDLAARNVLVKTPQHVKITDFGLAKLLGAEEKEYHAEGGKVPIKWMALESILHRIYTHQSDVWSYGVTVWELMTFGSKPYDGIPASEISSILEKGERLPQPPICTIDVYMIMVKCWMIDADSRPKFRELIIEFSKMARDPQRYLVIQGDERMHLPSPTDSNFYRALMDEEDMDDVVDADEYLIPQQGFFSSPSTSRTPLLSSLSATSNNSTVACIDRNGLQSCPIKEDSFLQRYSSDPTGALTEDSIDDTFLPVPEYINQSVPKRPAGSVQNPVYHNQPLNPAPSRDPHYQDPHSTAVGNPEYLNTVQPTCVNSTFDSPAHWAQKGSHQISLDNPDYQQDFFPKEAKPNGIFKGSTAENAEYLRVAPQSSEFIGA

In the case of `Cc1nc(NC(C)c2ccc(Br)s2)c2cc(N3CCN(C)C(=O)C3)ccc2n1` (stereo not drawn) [Example 434, 4-(4-{[1-(5-bromothiophen-2-yl)ethyl]amino}-2-methylquinazolin-6-yl)-1-methylpiperazin-2-one], the IC50 in assay [1] (setting [3]) was 2.39 µM; in assay [2] (setting [4]), 16.6 µM.

For the molecule `Cc1nc(NC(C)c2ccc(Br)s2)c2cc(NCCN3CCOCC3)ccc2n1` (stereo not drawn) [Example 425, N4-[l-(5-bromo-2-thienyl)ethyl]-2-methyl-N6-[2-(morpholin-4-yl)ethyl]quinazoline-4,6-diamine], the IC50 was 2.56 µM in assay [1] (setting [3]) and over 20 µM in assay [2] (setting [4]).

Take `Cc1nc(N[C@H](C)c2cccc(Cl)c2)c2cc(C3CC3)ccc2n1` [Example 407, N-[(1R)-1-(3-chlorophenyl)ethyl]-6-cyclopropyl-2-methylquinazolin-4-amine]: the values for the IC50 in assay [1] (setting [3]) and in assay [2] (setting [4]) were 1.06 µM and over 20 µM, respectively.

Turning to `Cc1nc(NC(C)c2ccc(-c3ccccc3CN(C)C)s2)c2cc(N3CCN(Cc4cccnc4)CC3)ccc2n1` (stereo not drawn) [Example 426, N-[1-(5-{2-[(dimethylamino)methyl]phenyl}thiophen-2-yl)ethyl]-2-methyl-6-[4-(pyridin-3-ylmethyl)piperazin-1-yl]quinazolin-4-amine], the IC50 in assay [1] (setting [3]) is 0.023 µM; in assay [2] (setting [4]), 4.95 µM.

`COc1cc2nc(C)nc(NC(C)c3cccc(OCc4ccccc4)c3)c2cc1OC` (stereo not drawn) [Example 389, N-{1-[3-(benzyloxy)phenyl]ethyl}-6,7-dimethoxy-2-methylquinazolin-4-amine]: the IC50 in assay [1] (setting [3]) was 14.9 µM; in assay [2] (setting [4]), over 20 µM.

Regarding `COC(=O)c1ccc2nc(C)nc(N[C@H](C)c3cccc(Cl)c3)c2c1` [Example 371, methyl 4-{[(1R)-1-(3-chlorophenyl)ethyl]amino}-2-methylquinazoline-6-carboxylate], the figures for the IC50 in assay [1] (setting [3]) and in assay [2] (setting [5]) were 2.42 µM and over 20 µM, respectively.

Take `COc1cc2nc(C)nc(NC(C)c3ccc(-c4ccccc4CN4CCN(C(=O)OC(C)(C)C)CC4)s3)c2cc1OC` (stereo not drawn) [Example 306, tert-butyl 4-[2-(5-{1-[(6,7-dimethoxy-2-methylquinazolin-4-yl)amino]ethyl}thiophen-2-yl)benzyl]piperazine-1-carboxylate]: the IC50 in assay [1] (high GTP, read-out: Assay 2 (KRAS-Activation by SOS high GTP) activity expressed as IC50) was 4.2 µM; in assay [2] (setting [6]), over 20 µM.

For `Cc1nc(NC(C)c2ccc(Br)s2)c2cc(N3CCN(Cc4cccnc4)CC3)ccc2n1` (stereo not drawn) [Example 424, N-[1-(5-bromothiophen-2-yl)ethyl]-2-methyl-6-[4-(pyridin-3-ylmethyl)piperazin-1-yl]quinazolin-4-amine], the IC50 in assay [1] (setting [3]) is 1.41 µM; in assay [2] (setting [4]), over 20 µM.

On to `COc1cc2nc(C)nc(NC(C)c3cc(C)c(-c4ccccc4CN(C)CCO)s3)c2cc1OC` (stereo not drawn) [Example 401, 2-{[2-(5-{1-[(6,7-dimethoxy-2-methylquinazolin-4-yl)amino]ethyl}-3-methyl-2-thienyl)benzyl](methyl)amino}ethanol], for which the IC50 is 0.0652 µM in assay [1] (setting [3]) and over 20 µM in assay [2] (setting [4]).

In the case of `COc1cc2nc(C)nc(NC(C)c3c(C)ccc4[nH]ncc34)c2cc1OC` (stereo not drawn) [Example 7, 6,7-dimethoxy-2-methyl-N-[1-(5-methyl-1H-indazol-4-yl)ethyl]quinazolin-4-amine], in assay [1] (read-out: Assay 2 (KRAS-Activation by SOS high GTP) activity expressed as % inhibition at 20 μM, high GTP, at 20 μM), the inhibition at 20 µM turned out to be 18%. In addition, the IC50 in assay [2] (setting [6]) was over 20 µM.

As to `COc1cc2nc(C)nc(NC(C)c3ccc(-c4ccccc4CN(C)C)s3)c2cc1OC` (single isomer, unassigned) [Example 391, N-[1-(5-{2-[(dimethylamino)methyl]phenyl}thiophen-2-yl)ethyl]-6,7-dimethoxy-2-methylquinazolin-4-amine], the IC50 is 0.0367 µM in assay [1] (setting [3]) and over 20 µM in assay [2] (setting [4]).

Take `COc1cc2nc(C)nc(NC(C)c3ccc(-c4ccccc4C(O)c4ccccc4)s3)c2cc1OC` (stereo not drawn) [Example 374, [2-(5-{1-[(6,7-dimethoxy-2-methylquinazolin-4-yl)amino]ethyl}thiophen-2-yl)-phenyl](phenyl)methanol]: the values for the IC50 in assay [1] (setting [3]) and in assay [2] (setting [5]) were 2.55 µM and over 20 µM, respectively.

In the case of `COc1ccc(-c2ccc(C(C)Nc3nc(C)nc4cc(OC)c(OC)cc34)s2)c(CN(C)C)c1` (stereo not drawn) [Example 439, N-[1-(5-{2-[(dimethylamino)methyl]-4-methoxyphenyl}thiophen-2-yl)ethyl]-6,7-dimethoxy-2-methylquinazolin-4-amine], the 50% inhibitory concentration (IC50) in assay [1] (setting [3]) was 0.145 µM; in assay [2] (setting [4]) it was over 20 µM.

As to `CNCc1ccccc1-c1sc(C(C)Nc2nc(C)nc3cc(OC)c(OC)cc23)cc1C` (stereo not drawn) [Example 402, 6,7-di methoxy-2-methyl-N-[1-(4-methyl-5-{2-[(methylamino)methyl]phenyl}thiophen-2-yl)ethyl]quinazolin-4-amine], the IC50 in assay [1] (setting [3]) is 0.0752 µM; in assay [2] (setting [4]), over 20 µM.

Take `COCC(=O)NCc1cc(F)ccc1-c1ccc(C(C)Nc2nc(C)nc3cc(OC)c(OC)cc23)s1` (stereo not drawn) [Example 383, N-[2-(5-{1-[(6,7-dimethoxy-2-methylquinazolin-4-yl)amino]ethyl}thiophen-2-yl)-5-fluorobenzyl]-2-methoxyacetamide]: the IC50 in assay [1] (setting [3]) was 3.62 µM; in assay [2] (setting [5]), over 20 µM.

In the case of `COc1cc2nc(C)nc(NC(C)c3ccc(-c4ccc(O)nc4)s3)c2cc1OC` (stereo not drawn) [Example 395, 5-(5-{1-[(6,7-dimethoxy-2-methylquinazolin-4-yl)amino]ethyl}thiophen-2-yl)pyridin-2-ol], the IC50 was 1.06 µM in assay [1] (setting [3]) and 7.07 µM in assay [2] (setting [4]).

`COc1cc2nc(C)nc(NC(C)c3ccc(-c4cccc(Cl)c4CN)s3)c2cc1OC` (stereo not drawn) [Example 397, N-[1-{5-[2-(aminomethyl)-3-chlorophenyl]thiophen-2-yl}ethyl]-6,7-dimethoxy-2-methylquinazolin-4-amine]: the IC50 in assay [1] (setting [3]) was 0.209 µM; in assay [2] (setting [4]), over 20 µM.

Turning to `Cc1nc(NC(C)c2ccc(Br)s2)c2cc(N3CCC(N(C)C)C3)ccc2n1` (stereo not drawn) [Example 414, N-[1-(5-bromothiophen-2-yl)ethyl]-6-[3-(dimethylamino)pyrrolidin-1-yl]-2-methylquinazolin-4-amine], the 50% inhibitory concentration (IC50) in assay [1] (setting [3]) was 1.24 µM; in assay [2] (setting [4]) it was over 20 µM.

For the molecule `COc1cc2nc(C)nc(NC(C)c3ccc(-c4ccccc4CN(C)CC#N)s3)c2cc1OC` (stereo not drawn) [Example 456, {[2-(5-{1-[(6,7-dimethoxy-2-methylquinazolin-4-yl)amino]ethyl}thiophen-2-yl)benzyl](methyl)amino}acetonitrile], the concentration for half-maximal inhibition (IC50) was 0.292 µM in assay [1] (setting [3]) and over 20 µM in assay [2] (setting [4]).

For `Cc1nc(NC(C)c2ccc(-c3ccccc3CN(C)C)s2)c2cc(N3CCN(C)CC3)ccc2n1` (stereo not drawn) [Example 417, N-[1-(5-{2-[(dimethylamino)methyl]phenyl}thiophen-2-yl)ethyl]-2-methyl-6-(4-methylpiperazin-1-yl)quinazolin-4-amine], the values for the IC50 in assay [1] (setting [3]) and in assay [2] (setting [4]) were 0.0289 µM and over 20 µM, respectively.

With `COc1cc2nc(C)nc(NC(C)c3ccc(-c4ccccc4CNC4CC4)s3)c2cc1OC` (stereo not drawn) [Example 370, N-[1-(5-{2-[(cyclopropylamino)methyl]phenyl}thiophen-2-yl)ethyl]-6,7-dimethoxy-2-methylquinazolin-4-amine], the IC50 in assay [1] (setting [3]) is 0.352 µM; in assay [2] (setting [5]), over 20 µM.

With `COc1cc2nc(C)nc(NC(C)c3ccc(-c4ccccc4C(O)C(F)(F)F)s3)c2cc1OC` (stereo not drawn) [Example 380, 1-[2-(5-{1-[(6,7-dimethoxy-2-methylquinazolin-4-yl)amino]ethyl}thiophen-2-yl)phenyl]-2,2,2-trifluoroethanol], the figures for the IC50 in assay [1] (setting [3]) and in assay [2] (setting [5]) were 1.6 µM and over 20 µM, respectively.

Turning to `COc1cc2nc(C)nc(NC(C)c3sc(-c4ccccc4CN)cc3Cl)c2cc1OC` (stereo not drawn) [Example 437, N-[1-{5-[2-(aminomethyl)phenyl]-3-chlorothiophen-2-yl}ethyl]-6,7-dimethoxy-2-methylquinazolin-4-amine], the IC50 in assay [1] (setting [3]) is 0.0953 µM; in assay [2] (setting [4]), over 20 µM.

With `Cc1nc(NC(C)c2ccc(-c3ccccc3CN(C)C)s2)c2cc(N3CCN(C)C(=O)C3)ccc2n1` (stereo not drawn) [Example 435, 4-(4-{[1-(5-{2-[(dimethylamino)methyl]phenyl}thiophen-2-yl)ethyl]amino}-2-methylquinazolin-6-yl)-1-methylpiperazin-2-one], the figures for the concentration for half-maximal inhibition (IC50) in assay [1] (setting [3]) and in assay [2] (setting [4]) were 0.0519 µM and over 20 µM, respectively.

Source of the values: US20240083857A1, “2-Methyl-Quinazolines” (Bayer Pharma Aktiengesellschaft, priority 2017, published 2024).
